According to US20190000789A1, “COMPOSITION AND METHOD FOR TREATING INFECTIONS CAUSED BY VANCOMYCIN-RESISTANT INFECTIOUS AGENTS IN A SUBJECT” (priority 2015, published 2019):

Experiments:
Type in all cases: cell-based, Streptomyces coelicolor
S. coelicolor LAG2 = assay: LC-MS analysis of peptidoglycan precursors, including time course after alanine addition
Description: In order to get more insights into the synthesis of vancomycin-sensitive (i.e., wild-type) or the alternate vancomycin-resistant peptidoglycan, the pool of peptidoglycan precursors was analyzed by Liquid Chromatography coupled to Mass Spectrometry (LC-MS). When cells produce wild-type PG, only the MurNac-pentapeptide with a D-Ala-D-Ala terminus are detected, while vancomycin-resistant PG precursors have a D-Ala-D-Lac terminus. To analyze the precursors produced in S. coelicolor M145 and its mutant derivatives LAG1 (Δddl) and LAG2 (Δddl vanS::IS466A) in the presence or absence of vancomycin, the strains were grown until exponential phase, after which the cultures were harvested, washed and the precursors extracted with 5% TCA. The supernatants were desalted, concentrated and analyzed by LC-MS (see Materials and Methods section).
(§1) To investigate what the effect would be of the addition of excess of D-Ala on the accumulation of wild-type precursors, a time-course experiment was performed to follow the effect of D-Ala addition on the ratio between wild-type and resistant precursors. Therefore, 300 ml liquid-grown NMMP cultures were supplemented with either D-Ala or L-Ala (control) at 50 mM end concentration, and 10 ml samples were collected prior to and 1, 5, 15, 30, 60, 120 and 180 minutes after the addition of either alanine stereoisomer. Samples were immediately filtered by vacuum filtration, washed in 0.9% NaCl, biomass scraped off the filter, added to a tube containing 5% TCA and samples prepared as described above. […] However, addition of 50 mM D-Ala triggered the production of small amounts of wt precursor (1%) within 1 minute. After 15 minutes, this amount had increased to 4%, which appeared to be close to the maximum, with levels of wt precursors never exceeding 5%.
(§2) For the precursor isolation and identification, a modification of the method described previously by Hong and colleagues (Hong et al., 2004) was used. 10 μg vancomycin was added to the strains at the moment of inoculation. The strains were grown in NMMP (1% (w/v) Mannitol, 50 mM MgCl2) until mid-log phase (OD-0.3-0.4) and mycelia were harvested by centrifugation at 4° C. and washed in 0.9% NaCl. The mycelium was extracted with 5% cold trichloric acid (TCA) for 30 minutes at 4° C. This was centrifuged and the supernatant desalted on a Sephadex G-25 column (Illustra NAP-10 Columns, GE Healthcare, Pittsburgh), and concentrated by rotary evaporation. The concentrated precursors were dissolved in HPLC-grade water and separated by LC-MS using a gradient of 0-20% acetonitrile in water with 0.1% TFA. The elution was monitored at 254 nm and monitored by the sizes eluted (1193.8-1195.3).
For the measurement over time, the protocol was adjusted in the following way: 300 ml NMMP cultures were grown until exponential phase, at which point a 10 ml sample was taken (sample t=0) and 50 mM of D-Ala or L-Ala was added, followed by further sampling after 1, 5, 15, 30, 60, 120 and 180 minutes. Samples were rapidly filtered with a vacuum pump and washed with 0.9% (w/v) NaCl, mycelia scraped off the filter and transferred to 5% TCA.

[1] = system: S. coelicolor M145 ΔvanX (LAG3); assay: MIC of vancomycin on MM agar plates with added D-Ala; details: M145 ΔvanX, 1000-fold lower D-Ala concentration than for M145
Text: VanX effectively eradicates the D-Ala-D-Ala dipeptide, thereby counteracting the accumulation of wild-type precursors and supporting vancomycin resistance (Lessard and Walsh, 1999; Tan et al., 2002). Therefore, a vanX null mutant was created using a similar strategy as for ddl, replacing the coding region of vanX by the apramycin resistance cassette aacC4. The mutant was created in both the parental strain S. coelicolor M145 and in its ddl suppressor mutant LAG2, generating LAG3 (M145 ΔvanX) and LAG4 (M145 Δddl ΔvanX vanS::IS466A), respectively.
LAG4 produced 20% wt precursors prior to the addition of D-Ala.
(§3) Escherichia coli strains JM109 (Sambrook et al., 1989) and ET12567 (Kieser et al., 2000) were used for routine cloning procedures and for extracting non-methylated DNA, respectively. Cells of E. coli were grown in Luria-Berani broth (LB) at 37° C. Streptomyces coelicolor A3(2) M145 was the parent of all mutants described in this work. All media and routine Streptomyces techniques were carried out as described (Kieser et al., 2000). SFM (soy flour mannitol) agar plates were used for propagating S. coelicolor strains and to prepare spore suspensions. For liquid-grown cultures, S. coelicolor mycelia were grown in normal minimal media with phosphate (NMMP) supplemented with 1% (w/v) mannitol as the sole carbon source. The MIC of vancomycin against S. coelicolor M145 and its mutant derivatives were determined by growth on minimal media (MM) agar plates supplemented with 1% mannitol as the sole carbon source, and 0, 2, 4, 8, 16, 32, 64, 128, 256 or 512 μg/ml vancomycin, in combination with 0, 1, 5, 10 or 50 mM of D-Ala or L-Ala. The vanX deletion mutants have been tested with 1, 5, 10, 50 and 100 μM D-Ala and L-Ala.

[2] = system: S. coelicolor LAG4 (LAG2 ΔvanX); assay: LC-MS analysis of peptidoglycan precursors, time course after D-Ala addition
Description: as §1
as §2, with “(1193.8-1195.3). […]” for “(1193.8-1195.3).”

[3] = system: S. coelicolor LAG2 (ddl suppressor mutant); assay: MIC of vancomycin on MM agar plates with added D-Ala or L-Ala; details: LAG2, L-Ala (control)
Description: VanS is the sensory kinase of a two-component system formed with VanR, and it has been shown previously that certain mutations in vanS will constitutively upregulate the vancomycin resistance cluster, explaining the viability of strain LAG2 in the absence of vancomycin.
as §3

S. coelicolor M145 = assay: as above; details: M145, up to 50 mg/ml L-Ala (control)
Description: The naturally vancomycin-resistant model organism S. coelicolor M145 was used as the initial test system. The strain was grown on solid minimal medium (MM) agar plates with increasing amounts of D-Ala and vancomycin. D-Ala was thereby added in concentrations of 5, 10 and 50 mM and the effect on the MIC of vancomycin assessed. As a first control, L-Ala was added and, as a second control, no amino acids were added. […] This was not altered when the culture media were supplemented with up to 50 mg/ml L-Ala (Table 1 and FIG. 6).
as §3

Row | Structure (SMILES) | wt precursor (S. coelicolor LAG2; LAG2, 50 mM D-Ala, after 15 minutes) | wt precursor, maximum level (S. coelicolor LAG2; LAG2, 50 mM D-Ala, up to 180 minutes) | wt precursor (S. coelicolor LAG2; LAG2, 50 mM D-Ala, within 1 minute) | stronger reduction of the MIC of vancomycin as compared to M145 [1] | wild-type precursor ([2]; LAG4, 3 hours after addition of D-Ala) | wild-type precursor ([2]; LAG4, after addition of D-Ala, 1 and 5 minutes) | wild-type precursor ([2]; LAG4, after addition of D-Ala, 15-30 minutes) | effect of L-Ala on the MIC for vancomycin [3] | effect of L-Ala on the MIC of vancomycin (S. coelicolor M145) | production of wt precursors (S. coelicolor LAG2; LAG2, 50 mM L-Ala (control))
1 | C[C@@H](N)C(=O)O [D-Ala, D-alanine] | 4% | ≤ 5% | 1% | 4 fold | 80% | 25% | 40% |  |  | 
2 | C[C@H](N)C(=O)O [L-Ala] |  |  |  |  |  |  |  | did not affect the MIC | not altered | did not activate the production of detectable levels
